Test results as given in US8778926B2, “Compounds, pharmaceutical compositions and uses thereof” (Boehringer Ingelheim International GmbH, priority 2011, dated 2014).

target: T1, human GPR119 (Homo sapiens, UniProt Q8TDV5); assay: AlphaScreen cAMP assay, activation of GPR119 in Min-6/hGPR119 cells; assay type: cell-based; settings: MIN6 cells stably transfected with human GPR119; intracellular cAMP; 45 minutes incubation at room temperature
T1 construct: expression vector for human GPR119 cDNA (Acc. No. NP_848566); expressed in transfected cells
T1 sequence (Q8TDV5 1-335): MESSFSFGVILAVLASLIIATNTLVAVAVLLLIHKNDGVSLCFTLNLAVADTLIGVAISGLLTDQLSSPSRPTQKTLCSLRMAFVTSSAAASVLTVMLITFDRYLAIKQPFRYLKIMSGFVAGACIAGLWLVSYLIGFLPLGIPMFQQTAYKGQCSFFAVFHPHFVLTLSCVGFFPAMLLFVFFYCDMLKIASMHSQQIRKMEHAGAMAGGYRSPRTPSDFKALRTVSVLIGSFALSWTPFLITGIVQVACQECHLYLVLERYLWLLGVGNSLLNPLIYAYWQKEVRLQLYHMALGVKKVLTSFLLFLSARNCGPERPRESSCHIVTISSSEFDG
Procedure: The compounds of formula I according to the invention modulate the activity of the G-protein-coupled receptor GPR119. The effect of the compounds on the activation of GPR119 and on the stimulation of intracellular cAMP concentration is determined using the AlphaScreen cAMP Assay Kit (Cat. No. #6760625R) made by PerkinElmer.
MIN6 cells [Miyazaki J et al. Endocrinology. 1990 July; 127(1):126-32] are stably transfected with an expression vector for human GPR119 cDNA (Acc. No. NP_848566). Min-6/hGPR119 cells are cultured in DMEM, 10% FBS, 500 μM β-mercaptoethanol, 0.3 mg/mL Geniticin, 2 mM GlutaMAX at 37° C. 5% CO2. For the assay, the cells are seeded in Optiplates (white, 384-well, 160 W— barcoded, TC, sterile with lid, Cat. No. #6007688 (Perkin Elmer); 10000 cells/well; 50 μl). The plates covered with lids are then incubated for 24 hours at 37° C./5% CO2. After the medium is aspirated from the wells completely, 10 μl of the test compound are added, the compounds are diluted using stimulating buffer (140 mM NaCl, 3.6 mM KCl, 0.5 mM NaH2PO4, 0.5 mM MgSO4, 1.5 mM CaCl2, 10 mM Hepes, 5 mM NaHCO3; pH 7.4. 0.5 mM IBMX and 0.1% BSA, the final DMSO concentration is 1%). After 45 minutes incubation at room temperature (approx. 20° C.), the cAMP concentrations are determined using the AlphaScreen cAMP Assay Kit (Cat. No. #6760625R from PerkinElmer).

SMILES | EC50 [nM]
CCc1cnc(N2CCC(C3Cc4cc(-c5ccc(C(=O)N(C)C6CCCOC6)cc5)ccc4O3)CC2)nc1 (stereo not shown) [Example 61] | 47
CCCc1noc(N2CCC(C3Cc4cc(C5=CCN(S(C)(=O)=O)CC5)ncc4O3)CC2)n1 (stereo not shown) [Example 19, 5-(1-Methanesulfonyl-1,2,3,6-tetrahydro-pyridin-4-yl)-2-[1-(3-propyl-[1,2,4]oxadiazol-5-yl)-piperidin-4-yl]-2,3-dihydro-furo[2,3-c]pyridine] | 25
CCc1cnc(N2CCC(C3Cc4cc(-c5ccc(C(=O)N(C)CCO)cc5)ccc4O3)CC2)nc1 (stereo not shown) [Example 78] | 39
CC(C)c1noc(N2CCC(C3Cc4cc(-c5ccc(S(C)(=O)=O)cc5)ncc4O3)CC2)n1 (stereo not shown) [Example 6, 2-[1-(3-Isopropyl-[1,2,4]oxadiazol-5-yl)-piperidin-4-yl]-5-(4-methanesulfonyl-phenyl)-2,3-dihydro-furo[2,3-c]pyridine] | 32
CCCc1noc(N2CCC(C3Cc4cc(-c5ccc(S(C)(=O)=O)cc5)ccc4O3)CC2)n1 (stereo not shown) [Example 4, 4-[5-(4-Methanesulfonyl-phenyl)-2,3-dihydro-benzofuran-2-yl]-1-(3-propyl-[1,2,4]oxadiazol-5-yl)-piperidine] | 52
CCc1cnc(N2CCC(C3Cc4cc(-c5ccc(C(=O)NCC#N)cc5)ccc4O3)CC2)nc1 (stereo not shown) [Example 67] | 141
CC1(c2nc(N3CCC([C@@H]4Cc5cc(C6=CCN(S(C)(=O)=O)CC6)ncc5O4)CC3)no2)CC1 (single isomer, unassigned) [Example 57] | 36
CCc1cnc(N2CCC(C3Cc4cc(-c5ccc(C(=O)N(C)CCOC)cc5)ccc4O3)CC2)nc1 (stereo not shown) [Example 62] | 20
CCc1cnc(N2CCC(C3Cc4cc(-c5ccc(C(=O)NCC6COCCO6)cc5)ccc4O3)CC2)nc1 (stereo not shown) [Example 77] | 19
Cc1cnc(N2CCC(C3Cc4cc(-c5ccc(S(C)(=O)=O)cc5)ncc4O3)CC2)cn1 (stereo not shown) [Example 10, 5-(4-Methanesulfonyl-phenyl)-2-[1-(5-methyl-pyrazin-2-yl)-piperidin-4-yl]-2,3-dihydro-furo[2,3c]pyridine] | 152
CCc1cnc(N2CCC([C@]3(C)Cc4cc(-c5ccc(S(C)(=O)=O)cc5)ncc4O3)CC2)nc1 (single isomer, unassigned) [Example 28] | 22
CCc1cnc(N2CCC(C3Cc4cc(-c5ccc(CS(C)(=O)=O)cc5)ncc4O3)CC2)nc1 (stereo not shown) [Example 12, 2-[1-(5-Ethyl-pyrimidin-2-yl)-piperidin-4-yl]-5-(4-methanesulfonylmethyl-phenyl)-2,3-dihydro-furo[2,3-c]pyridine] | 22
C[C@]1(C2CCN(c3ncc(Cl)cn3)CC2)Cc2cc(C3=CCN(S(C)(=O)=O)CC3)ncc2O1 (single isomer, unassigned) [Example 88] | 59
CCCc1noc(N2CCC(C3Cc4cc(-c5ccc(S(C)(=O)=O)cc5)ncc4O3)CC2)n1 (stereo not shown) [Example 7, 5-(4-Methanesulfonyl-phenyl)-2-[1-(3-propyl-[1,2,4]oxadiazol-5-yl)-piperidin-4-yl]-2,3-dihydro-furo[2,3-c]pyridine] | 35
CC(C)c1noc(N2CCC(C3Cc4cc(-c5ccc(CS(C)(=O)=O)cc5F)ncc4O3)CC2)n1 (stereo not shown) [Example 21, 5-(2-Fluoro-4-methanesulfonylmethyl-phenyl)-2-[1-(3-isopropyl-[1,2,4]oxadiazol-5-yl)-piperidin-4-yl]-2,3-dihydro-furo[2,3-c]pyridine] | 28
Cc1cnc(N2CCC([C@@H]3Cc4cc(C5=CCN(S(C)(=O)=O)CC5)ncc4O3)CC2)nc1 (single isomer, unassigned) [Example 32] | 29
CCCc1noc(N2CCC(C3Cc4cc(-c5ccc(CS(C)(=O)=O)cc5)ncc4O3)CC2)n1 (stereo not shown) [Example 15, 5-(4-Methanesulfonylmethyl-phenyl)-2-[1-(3-propyl-[1,2,4]oxadiazol-5-yl)-piperidin-4-yl]-2,3-dihydro-furo[2,3-c]pyridine] | 38
CC(C)(C)c1noc(N2CCC(C3Cc4cc(C5=CCN(S(C)(=O)=O)CC5)ncc4O3)CC2)n1 (stereo not shown) [Example 34, 2-[1-(3-tert-Butyl-[1,2,4]oxadiazol-5-yl)-piperidin-4-yl]-5-(1-methanesulfonyl-1,2,3,6-tetrahydro-pyridin-4-yl)-2,3-dihydro-furo[2,3-c]pyridine] | 18

The remaining compounds from weak to strong by EC50, led by results:

EC50 [nM] | SMILES
18 | COc1cnc(N2CCC([C@H]3Cc4cc(-c5ccc(S(C)(=O)=O)cc5)ncc4O3)CC2)nc1 (single isomer, unassigned) [Example 94]
17 | CC(C)c1nc(N2CCC(C3Cc4cc(-c5ccc(CS(C)(=O)=O)cc5)ncc4O3)CC2)no1 (stereo not shown) [Example 16]
16 | C[C@@]1(C2CCN(c3ncc(C4CC4)cn3)CC2)Cc2cc(-c3ccc(S(C)(=O)=O)cc3)ncc2O1 (single isomer, unassigned) [Example 89]
13 | CS(=O)(=O)c1ccc(-c2cc3c(cn2)O[C@@H](C2CCN(c4ncc(Cl)cn4)CC2)C3)cc1 (single isomer, unassigned) [Example 87]
12 | CC1(C2CCN(c3nnc(C(F)(F)F)s3)CC2)Cc2cc(C3=CCN(S(C)(=O)=O)CC3)ncc2O1 (single isomer, unassigned) [Example 48, 5-(1-Methanesulfonyl-1,2,3,6-tetrahydro-pyridin-4-yl)-2-methyl-2-[1-(5-trifluoromethyl-[1,3,4]thiadiazol-2-yl)-piperidin-4-yl]-2,3-dihydro-furo[2,3-c]pyridine]
12 | CCc1cnc(N2CCC(C3Cc4cc(-c5ccc(C(=O)NCC6CCCO6)cc5)ccc4O3)CC2)nc1 (stereo not shown) [Example 72]
10 | CS(=O)(=O)N1CC=C(c2cc3c(cn2)O[C@@H](C2CCN(c4nnc(C(F)(F)F)s4)CC2)C3)CC1 (single isomer, unassigned) [Example 81]
9 | CC(C)c1noc(N2CCC([C@]3(C)Cc4cc(-c5ccc(S(C)(=O)=O)cc5)ncc4O3)CC2)n1 (single isomer, unassigned) [Example 26]
6 | Cc1cnc(N2CCC([C@H]3Cc4cc(C5=CCN(S(C)(=O)=O)CC5)ncc4O3)CC2)nc1 (single isomer, unassigned) [Example 33]
6 | CC(C)c1nc(N2CCC(C3Cc4cc(C5=CCN(S(C)(=O)=O)CC5)ncc4O3)CC2)no1 (stereo not shown) [Example 22]
6 | Cc1cnc(N2CCC([C@]3(C)Cc4cc(C5=CCN(S(C)(=O)=O)CC5)ncc4O3)CC2)nc1 (single isomer, unassigned) [Example 41]
5 | CCc1cnc(N2CCC([C@]3(C)Cc4cc(C5=CCN(S(C)(=O)=O)CC5)ncc4O3)CC2)nc1 (single isomer, unassigned) [Example 36]
5 | CC(C)(C)c1nc(N2CCC([C@H]3Cc4cc(C5=CCN(S(C)(=O)=O)CC5)ncc4O3)CC2)no1 (single isomer, unassigned) [Example 50]
3 | C[C@@]1(C2CCN(c3ncc(C(F)(F)F)cn3)CC2)Cc2cc(C3=CCN(S(C)(=O)=O)CC3)ncc2O1 (single isomer, unassigned) [Example 35]
2 | C[C@@]1(C2CCN(c3ncc(C(F)(F)F)cc3F)CC2)Cc2cc(C3=CCN(S(C)(=O)=O)CC3)ncc2O1 (single isomer, unassigned) [Example 40]
2 | CS(=O)(=O)N1CC=C(c2cc3c(cn2)O[C@@H](C2CCN(c4ncc(C(F)(F)F)cc4F)CC2)C3)CC1 (single isomer, unassigned) [Example 84]
